One data set addresses T1, Human thrombin (Homo sapiens, UniProt P00734).
T1 construct: conversion of the proenzyme prothrombin to the active enzyme thrombin; purchased Sigma Chem. Co T 6769
Put plainly: Test A: Determination of Thrombin Clotting Time (TT). Type of data set: biochemical. To be noted: concentration of inhibitor that doubles the thrombin clotting time for human plasma. The protocol:
Determination of Thrombin Clotting Time (TT)
The inhibitor solution (25 μL) was incubated with plasma (25 μL) for three minutes. Human thrombin (T 6769; Sigma Chem. Co) in buffer solution, pH 7.4 (25 μL) was then added and the clotting time measured in an automatic device (KC 10; Amelung).
The clotting time in seconds was plotted against the inhibitor concentration, and the IC50TT was determined by interpolation.
IC50TT is the concentration of inhibitor in the test that doubles the thrombin clotting time for human plasma.

The conditions of data set [1]: rat, in vivo. From the text:
Determination of Thrombin Time Ex Vivo
The inhibition of thrombin after oral or parenteral administration of the compounds of formula I, dissolved in ethanol:Solutol™:water (5:5:90), were examined in conscious rats which, one or two days prior to the experiment, were equipped with a catheter for blood sampling from the carotid artery. On the experimental day blood samples were withdrawn at fixed times after the administration of the compound into plastic tubes containing 1 part sodium citrate solution (0.13 mol per L) and 9 parts of blood. The tubes were centrifuged to obtain platelet poor plasma. The plasma was used for determination of thrombin time as described below.
The citrated rat plasma, 100 μL, was diluted with a saline solution, 0.9%, 100 μL, and plasma coagulation was started by the addition of human thrombin (T 6769, Sigma Chem Co, USA) in a buffer solution, pH 7.4, 100 μL. The clotting time was measured in an automatic device (KC 10, Amelumg, Germany). […]
Based on the estimated plasma concentrations of the active thrombin inhibitor (which assumes that thrombin time prolongation is caused by the aforementioned compound) in the rat, the area under the curve after oral and/or parenteral administration of the corresponding prodrug compound of formula I was calculated (AUCpd) using the trapezoidal rule and extrapolation of data to infinity. […]

The source of these data is US7241757B2, “Amidino derivatives and their use as thrombin inhibitors” (AstraZeneca AB, priority 2000, dated 2007).

Bounds are passed on as bounds.

In the case of `N=C(N)c1ccc(CNC(=O)C2CCN2C(=O)C2(O)CCOc3c(OC(F)F)cc(Cl)cc32)cc1` (single isomer, unassigned) [Example 8, (S)- or (R)-4-Hydroxy-6-chloro-8-difluoromethoxychroman-4-yl-C(O)-Aze-Pab×HOAc], at Human thrombin, the IC50 was less than 100 nM.

Consider `CON=C(N)c1ccc(CNC(=O)[C@@H]2CCN2C(=O)C2(O)CCOc3c(OC(F)F)cc(Cl)cc32)cc1` (single isomer, unassigned) [Example 9, (S)- or (R)-4-Hydroxy-6-chloro-8-difluoromethoxychroman-4-yl-C(O)-Aze-Pab(OMe)], for which the “oral and/or parenteral bioavailability as the corresponding active inhibitor (free amidine)” value in data set [1] is recorded as “exhibit oral and/or parenteral bioavailability”.

`N=C(N)c1ccc(CNC(=O)C2CCN2C(=O)C2(O)CCOc3c(OC(F)(F)F)cc(Cl)cc32)cc1` (stereo not shown) [Example 6, 4-Hydroxy-6-chloro-8-trifluoromethoxychroman-4-yl-C(O)-Aze-Pab] showed an IC50 against Human thrombin of less than 100 nM.

In the case of `CON=C(N)c1ccc(CNC(=O)[C@@H]2CCN2C(=O)C2(O)CCOc3c(OC(F)(F)F)cc(Cl)cc32)cc1` (stereo partly shown) [Example 7, 4-Hydroxy-6-chloro-8-trifluoromethoxychroman-4-yl-C(O)-Aze-Pab(OMe)], the “oral and/or parenteral bioavailability as the corresponding active inhibitor (free amidine)” value in data set [1] is on record as “exhibit oral and/or parenteral bioavailability”.

What is called IC50 is the concentration that inhibits the measured activity by half. Lower therefore signals inhibition by little substance.
